ChEMBL document CHEMBL1151215, “Isotsaokoin, an antifungal agent from Amomum tsao-ko” (2004)
Calls of active or inactive are those of the source. The calls are words filed in the database; no cut-off is given here.

Tests used:
[1] = tested on: Trichophyton mentagrophytes; assay: Antifungal activity against Trichophyton mentagrophytes KCTC 6085 at 20 ug/disk after 4 days by paper-disk agar diffusion assay; format: functional; settings: KCTC 6085, 96 h, read-out: IZ
[2] = tested on: Trichophyton mentagrophytes; assay: Antifungal activity against Trichophyton mentagrophytes KCTC 6085 at 40 ug/disk after 4 days by paper-disk agar diffusion assay; format: functional; settings: KCTC 6085, 96 h, read-out: IZ
[3] = tested on: Trichophyton mentagrophytes; assay: Antifungal activity against Trichophyton mentagrophytes KCTC 6085 at 60 ug/disk after 4 days by paper-disk agar diffusion assay; format: functional, organism-based

Structure (SMILES)	zone of inhibition at 20 µg/disc [1]	zone of inhibition at 40 µg/disc [2]	Activity [3]
C[C@@H]1[C@H](O)[C@@H](C)/C=C/C=C/C=C/C=C/C=C/C=C/C=C/[C@H](O[C@@H]2O[C@H](C)[C@@H](O)[C@H](N)[C@@H]2O)C[C@@H]2O[C@](O)(C[C@@H](O)C[C@@H](O)[C@H](O)CC[C@@H](O)C[C@@H](O)CC(=O)O[C@H]1C)C[C@H](O)[C@H]2C(=O)O [AMPHOTERICIN B]	2.5 mm	3 mm	
O=CC1=CC[C@@H](O)[C@@H]2CCC[C@H]12 (relative stereo) [ISOTSAOKOIN]	1.5 mm	2 mm	
OCC1=CC[C@@H](O)[C@H]2CCC[C@@H]12			inactive
